Measured values taken from US9284291B2, “Kappa opioid receptor compounds” (MediSynergies, LLC, priority 2014, dated 2016).

Assays:
Assay type in all cases: binding
Kappa opioid receptor = Kappa opioid receptor (Homo sapiens, UniProt P41145); test: Opioid receptor affinity, NIMH PDSP screen, Kappa subtype
Description: (§1) The compound of Example 7 was tested for activity vs. opioid receptor subtypes, at an initial concentration of 10 μM, through the NIMH Psychoactive Drug Screening Program (PDSP), operated by Dr. Bryan Roth and his colleagues in the Department of Pharmacology at the University of North Carolina (Chapel Hill, N.C.) through an agreement with the National Institute of Mental Health (NIMH).

Mu opioid receptor = Mu opioid receptor (Homo sapiens, UniProt P35372); test: Opioid receptor affinity, NIMH PDSP screen, Mu subtype
Description: as §1

Delta opioid receptor = Delta opioid receptor (Homo sapiens, UniProt P41143); test: Opioid receptor affinity, NIMH PDSP screen, Delta subtype
Description: as §1

Kappa opioid receptor, sequence (P41145 whole entry): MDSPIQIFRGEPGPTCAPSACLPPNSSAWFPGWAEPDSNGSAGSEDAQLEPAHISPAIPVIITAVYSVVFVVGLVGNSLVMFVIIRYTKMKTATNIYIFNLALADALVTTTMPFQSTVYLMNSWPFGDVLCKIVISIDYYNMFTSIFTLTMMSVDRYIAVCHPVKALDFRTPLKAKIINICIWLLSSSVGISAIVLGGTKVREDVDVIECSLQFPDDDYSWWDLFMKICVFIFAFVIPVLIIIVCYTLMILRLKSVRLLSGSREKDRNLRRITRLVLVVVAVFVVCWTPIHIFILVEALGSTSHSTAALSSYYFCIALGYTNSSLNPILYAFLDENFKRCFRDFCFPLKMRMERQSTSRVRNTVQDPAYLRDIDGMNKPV
Delta opioid receptor, sequence (P41143 whole entry): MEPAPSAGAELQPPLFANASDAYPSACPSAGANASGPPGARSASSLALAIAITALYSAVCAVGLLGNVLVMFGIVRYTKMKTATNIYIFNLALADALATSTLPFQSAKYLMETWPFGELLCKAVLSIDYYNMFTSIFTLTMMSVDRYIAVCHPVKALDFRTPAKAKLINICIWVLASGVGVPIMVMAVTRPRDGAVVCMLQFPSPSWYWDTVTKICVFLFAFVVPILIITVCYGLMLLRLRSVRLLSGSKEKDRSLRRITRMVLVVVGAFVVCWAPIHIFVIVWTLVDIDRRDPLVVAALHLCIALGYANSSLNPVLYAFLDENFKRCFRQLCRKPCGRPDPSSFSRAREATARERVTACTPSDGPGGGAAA
Mu opioid receptor, sequence (P35372 whole entry, species assumed): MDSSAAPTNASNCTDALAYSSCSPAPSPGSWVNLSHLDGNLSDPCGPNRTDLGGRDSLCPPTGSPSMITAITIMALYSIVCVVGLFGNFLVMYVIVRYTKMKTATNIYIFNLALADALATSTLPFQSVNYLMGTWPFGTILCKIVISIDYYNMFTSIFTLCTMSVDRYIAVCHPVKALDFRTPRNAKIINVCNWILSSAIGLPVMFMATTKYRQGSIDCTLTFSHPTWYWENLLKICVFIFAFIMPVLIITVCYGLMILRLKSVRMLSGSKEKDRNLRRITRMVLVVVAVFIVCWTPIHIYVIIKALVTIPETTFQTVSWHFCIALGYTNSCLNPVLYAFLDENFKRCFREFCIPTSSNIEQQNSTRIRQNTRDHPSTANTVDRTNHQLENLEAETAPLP

Which Ki (Kappa opioid receptor) does the source give for CN(C)CCCC1(c2ccc(F)cc2)OCc2cc(-c3ncc[nH]3)ccc21 (stereo not shown) [Example 7] here?
The Ki was 47 nM.

And the inhibition at 10 µM (Kappa opioid receptor; 10 μM)?
The inhibition at 10 µM was 100%.

What about the inhibition at 10 µM (Mu opioid receptor) of the same molecule?
Its inhibition at 10 µM is 39.1%.

And the inhibition at 10 µM (Delta opioid receptor)?
Its inhibition at 10 µM is 23.5%.
